Data as given in patent US11752122B2 (OKLAHOMA MEDICAL RESEARCH FOUNDATION, priority 2018, dated 2023).
Entries after “also recorded” stand apart in the source; their conditions may differ. Where two headings read alike, the source gives them in different places.

Columns and labels:
[1] = cited from earlier work
[2] = Activity and stability of NAC dissolved in water; assay type: physicochemical; details: up to 15 days; tested by effect on blocking shear-dependent TGF-β1 activation
Source text: Experimental Design. […] Water was replaced with a fresh solution every week.

mouse model = details: large doses, mouse model; cited from earlier work
[3] = molecular target: T1, latent TGF-β1 released from platelets (Homo sapiens, UniProt P01137); details: in vitro; cited from earlier work
T1 construct: host or cells: platelet releasate
T1 sequence (P01137 30-278 limits assumed): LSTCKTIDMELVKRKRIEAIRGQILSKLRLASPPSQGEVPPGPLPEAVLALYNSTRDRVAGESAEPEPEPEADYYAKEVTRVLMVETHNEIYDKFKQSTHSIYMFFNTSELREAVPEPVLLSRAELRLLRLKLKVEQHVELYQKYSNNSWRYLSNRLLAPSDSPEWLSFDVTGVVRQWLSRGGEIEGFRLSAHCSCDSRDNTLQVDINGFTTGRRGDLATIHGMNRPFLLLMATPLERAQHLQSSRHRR
T1 sequence (P01137 279-390 limits assumed): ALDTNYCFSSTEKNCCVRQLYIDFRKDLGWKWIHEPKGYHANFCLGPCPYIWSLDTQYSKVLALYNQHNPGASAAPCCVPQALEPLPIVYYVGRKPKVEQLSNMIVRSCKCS
T1 sequence (Q14766 24-1721 partner): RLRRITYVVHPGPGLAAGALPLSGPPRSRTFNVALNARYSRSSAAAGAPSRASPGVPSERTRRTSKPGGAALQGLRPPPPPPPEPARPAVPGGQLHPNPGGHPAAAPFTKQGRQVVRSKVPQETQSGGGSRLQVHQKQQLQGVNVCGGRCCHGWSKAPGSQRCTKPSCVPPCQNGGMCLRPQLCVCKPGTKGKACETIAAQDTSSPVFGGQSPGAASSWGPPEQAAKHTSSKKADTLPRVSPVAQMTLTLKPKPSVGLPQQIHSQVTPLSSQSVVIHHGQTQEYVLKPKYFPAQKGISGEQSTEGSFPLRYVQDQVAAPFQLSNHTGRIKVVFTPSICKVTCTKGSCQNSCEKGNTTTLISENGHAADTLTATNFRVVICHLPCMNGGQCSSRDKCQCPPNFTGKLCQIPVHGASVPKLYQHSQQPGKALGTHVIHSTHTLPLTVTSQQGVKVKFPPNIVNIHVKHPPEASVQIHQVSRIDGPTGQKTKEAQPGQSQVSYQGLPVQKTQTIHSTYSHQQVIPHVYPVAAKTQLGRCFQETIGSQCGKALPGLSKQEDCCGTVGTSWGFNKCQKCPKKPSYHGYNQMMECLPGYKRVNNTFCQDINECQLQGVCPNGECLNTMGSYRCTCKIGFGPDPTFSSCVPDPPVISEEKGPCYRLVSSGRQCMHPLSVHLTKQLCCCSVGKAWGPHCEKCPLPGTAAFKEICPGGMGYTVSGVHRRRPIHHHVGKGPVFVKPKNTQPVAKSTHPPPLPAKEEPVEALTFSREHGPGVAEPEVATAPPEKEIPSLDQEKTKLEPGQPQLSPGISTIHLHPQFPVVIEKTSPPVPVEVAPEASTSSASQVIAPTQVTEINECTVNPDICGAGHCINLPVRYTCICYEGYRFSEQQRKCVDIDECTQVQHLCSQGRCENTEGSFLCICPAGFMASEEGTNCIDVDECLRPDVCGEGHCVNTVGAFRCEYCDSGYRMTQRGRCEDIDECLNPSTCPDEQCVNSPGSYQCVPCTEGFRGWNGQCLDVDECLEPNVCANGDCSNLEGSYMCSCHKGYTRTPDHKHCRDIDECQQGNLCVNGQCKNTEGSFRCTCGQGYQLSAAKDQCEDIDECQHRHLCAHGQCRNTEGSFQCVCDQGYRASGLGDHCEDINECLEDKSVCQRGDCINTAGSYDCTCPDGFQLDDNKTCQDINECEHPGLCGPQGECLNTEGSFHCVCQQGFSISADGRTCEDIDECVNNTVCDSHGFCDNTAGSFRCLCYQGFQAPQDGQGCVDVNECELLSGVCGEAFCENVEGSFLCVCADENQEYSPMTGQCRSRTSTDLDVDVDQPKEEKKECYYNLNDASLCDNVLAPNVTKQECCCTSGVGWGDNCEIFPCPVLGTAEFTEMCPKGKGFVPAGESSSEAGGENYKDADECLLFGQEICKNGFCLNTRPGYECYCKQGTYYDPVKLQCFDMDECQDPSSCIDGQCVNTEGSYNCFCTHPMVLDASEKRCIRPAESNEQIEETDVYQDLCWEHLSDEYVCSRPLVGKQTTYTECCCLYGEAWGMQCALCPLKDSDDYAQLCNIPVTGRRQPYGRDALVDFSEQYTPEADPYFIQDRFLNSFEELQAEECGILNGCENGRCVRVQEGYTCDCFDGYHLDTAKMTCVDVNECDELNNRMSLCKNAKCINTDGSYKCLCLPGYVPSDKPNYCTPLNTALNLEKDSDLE

[4] = IV formulations; cited from earlier work
LDLR mice on HFD = details: for WSS (wall shear stress) / fractional valve opening: LDLR mice on HFD, vs untreated control mice
Source text: Mice. Hypercholesterolemic mice deficient for low-density lipoprotein receptors (Ldlr−/−), which only express ApoB-100 (Ldlr−/−Apob100/100, LDLR), were obtained from Jackson Laboratories (B6; 129SLdlrtm1HerApobtm2Sgy/J, stock no. 003000). WT C57bl/6 mice were also obtained from the Jackson Laboratory (stock no. 000664) and served as controls. TGF-β1^platelet-KO-LDLR mice (Pf4Cre+Tgfb1f/f;Ldlr−/−Apob100/100;) and TGF-β1^flox-LDLR littermate controls (Tgfb1f/f;Ldlr−/−Apob100/100) were generated by crossing LDLR mice with Pf4Cre+;Tgfb1f/f mice, as shown in FIGS. 7A-B and Supplemental Table 5. […] The inventor crossed Tie2Cre mice (stock no. 008863, Jackson Laboratories) with tdTomato lox-stop-lox mice (stock no. 007909, Jackson Laboratories) to generate Tie2Cre;tdTomato mice that express tdTomato only under Cre activity. All mice were housed in a controlled environment (23±2° C.; 12 hours light/dark cycles) and fed either a chow diet (CD) (PicoLab® Rodent Diet 20, 5053) or a customized high fat diet (HFD) (Harlan Teklad, TD.9612102. containing 21% milk fat (MF), 1.25% Cholesterol) in powdered form in a glass jar with perforated metal strainer (DYETS, Braintree Scientific Inc.). The Oklahoma Medical Research Foundation's Institutional Animal Care and Usage Committee approved all procedures.
Experimental Design. A total of 118 LDLR (58 Males, 60 Females) and 20 WT mice (10 Males, 10 Females) were used for this study. Half of the mice (6 weeks old) were switched to HFD and maintained for up to 9 months. Progression and severity (mild/moderate/severe) of AS were monitored at 0, 3, 6 and 9 months by echocardiography using non-invasive ultrasound imaging techniques. Five mice per cage (total of 25 males, 15 females) were treated with 2% N-acetylcysteine (NAC) (Acros Organics, 160280010) in drinking water. NAC was prepared in reverse osmosis water and its pH was adjusted to 7.4 with NaOH. Water was replaced with a fresh solution every week.
Echocardiography. Mice were anesthetized with Isoflurane (3-5% inhalation) in an induction chamber. Mice that appeared to be sick due to severe stenosis or that were underweight were anesthetized using a lower isoflurane level to prevent adverse or lethal effects from the anesthetic. Once visibly anesthetized, isoflurane was reduced to 0.5%-2% and the mouse was moved from the chamber to a nose-cone on a heated platform set at 40° C. to maintain body temperature (35±2° C.). Heavier mice were maintained at higher isoflurane levels as they appeared less sensitive to its anesthetic effects. All four limbs were taped to physiological electrodes and a rectal temperature probe was inserted. Electrode gel was used to enhance the physiologic readings. To ensure accuracy of all echo measurements, physiological parameters were monitored and recordings were only taken if the heart rate was 430-550 beats per minute, respiration was 20-100 breaths per minute, and body temperature was close to 37° C. (35±2° C.).
Measurement of AS parameters using a modified view of ultrasound imaging. Echocardiography is the gold standard non-invasive method to measure AS in humans. However, the mouse heart rate is 10-times faster (500 to 600 beats per minute), making the acquisition of high-resolution images of the very thin non-diseased valves challenging. […] LVOT was measured from the long-axis view and was used to calculate AV pressure and normalize the cusp separation (Lindman et al., 2016; Meyer et al., 2012). This view was obtained by tilting the lower left corner of the platform downward by about 30° and angling the transducer up such that it interfaced with the chest cavity by about 45°.

[5] = LDLR HFD + NAC (2-5 Months), total n=8
[6] = LDLR HFD + NAC (3-5 Months), total n=11
[7] = LDLR HFD + NAC (5-6 Months), total n=7

CC(=O)N[C@@H](CS)C(=O)O [NAC, N-acetylcysteine]
Urine excretion ([1]; in vivo): 22-30%
metabolism ([1]; liver): extensively liver metabolized
activity and stability after dissolving in water [2]: validated
damage to the heart and lungs (mouse model): could potentially cause damage to the heart and lungs
shear-dependent activation of latent TGF-β1 released from platelets [3]: inhibited; also recorded: partially inhibits; also recorded: blocks
patients experiencing anaphylaxis reaction [4]: Up to 18%
Penetrance, fractional valve opening: Mild Stenosis 0.75-0.85, number of mice (LDLR mice on HFD; [5]): 1
Penetrance, fractional valve opening: Mild Stenosis 0.75-0.85, percent of mice (LDLR mice on HFD; [5]): (12%)
Penetrance, fractional valve opening: Moderate Stenosis 0.6-0.75, number of mice (LDLR mice on HFD; [5]): 2
Penetrance, fractional valve opening: Moderate Stenosis 0.6-0.75, percent of mice (LDLR mice on HFD; [5]): (25%)
Penetrance, fractional valve opening: No Stenosis >0.85, number of mice (LDLR mice on HFD; [5]): 0
Penetrance, fractional valve opening: No Stenosis >0.85, percent of mice (LDLR mice on HFD; [5]): (0%)
Penetrance, fractional valve opening: Severe Stenosis <0.6, number of mice (LDLR mice on HFD; [5]): 5
Penetrance, wall shear stress: Mild Stenosis 350-525 dyn/cm^2, number of mice (LDLR mice on HFD; [5]): 0
Penetrance, wall shear stress: Mild Stenosis 350-525 dyn/cm^2, percent of mice (LDLR mice on HFD; [5]): (0%)
Penetrance, wall shear stress: Moderate Stenosis 525-700 dyn/cm^2, number of mice (LDLR mice on HFD; [5]): 3
Penetrance, wall shear stress: Moderate Stenosis 525-700 dyn/cm^2, percent of mice (LDLR mice on HFD; [5]): (37%)
Penetrance, wall shear stress: No Stenosis <350 dyn/cm^2, number of mice (LDLR mice on HFD; [5]): 0
Penetrance, wall shear stress: No Stenosis <350 dyn/cm^2, percent of mice (LDLR mice on HFD; [5]): (0%)
Penetrance, wall shear stress: Severe Stenosis >700 dyn/cm^2, number of mice (LDLR mice on HFD; [5]): 6
Penetrance, wall shear stress: Severe Stenosis >700 dyn/cm^2, percent of mice (LDLR mice on HFD; [5]): (63%)
Penetrance, fractional valve opening: Mild Stenosis 0.75-0.85, number of mice (LDLR mice on HFD; [6]): 2
Penetrance, fractional valve opening: Mild Stenosis 0.75-0.85, percent of mice (LDLR mice on HFD; [6]): (16%)
Penetrance, fractional valve opening: Moderate Stenosis 0.6-0.75, number of mice (LDLR mice on HFD; [6]): 7
Penetrance, fractional valve opening: Moderate Stenosis 0.6-0.75, percent of mice (LDLR mice on HFD; [6]): (64%)
Penetrance, fractional valve opening: No Stenosis >0.85, number of mice (LDLR mice on HFD; [6]): 0
Penetrance, fractional valve opening: No Stenosis >0.85, percent of mice (LDLR mice on HFD; [6]): (0%)
Penetrance, fractional valve opening: Severe Stenosis <0.6, number of mice (LDLR mice on HFD; [6]): 2
Penetrance, fractional valve opening: Severe Stenosis <0.6, percent of mice (LDLR mice on HFD; [6]): (18%)
Penetrance, wall shear stress: Mild Stenosis 350-525 dyn/cm^2, number of mice (LDLR mice on HFD; [6]): 4
Penetrance, wall shear stress: Mild Stenosis 350-525 dyn/cm^2, percent of mice (LDLR mice on HFD; [6]): (36%)
Penetrance, wall shear stress: Moderate Stenosis 525-700 dyn/cm^2, number of mice (LDLR mice on HFD; [6]): 5
Penetrance, wall shear stress: Moderate Stenosis 525-700 dyn/cm^2, percent of mice (LDLR mice on HFD; [6]): (46%)
Penetrance, wall shear stress: No Stenosis <350 dyn/cm^2, number of mice (LDLR mice on HFD; [6]): 0
Penetrance, wall shear stress: No Stenosis <350 dyn/cm^2, percent of mice (LDLR mice on HFD; [6]): (0%)
Penetrance, wall shear stress: Severe Stenosis >700 dyn/cm^2, number of mice (LDLR mice on HFD; [6]): 2
Penetrance, wall shear stress: Severe Stenosis >700 dyn/cm^2, percent of mice (LDLR mice on HFD; [6]): (18%)
Penetrance, fractional valve opening: Mild Stenosis 0.75-0.85, number of mice (LDLR mice on HFD; [7]): 3
Penetrance, fractional valve opening: Mild Stenosis 0.75-0.85, percent of mice (LDLR mice on HFD; [7]): (43%)
Penetrance, fractional valve opening: Moderate Stenosis 0.6-0.75, number of mice (LDLR mice on HFD; [7]): 4
Penetrance, fractional valve opening: Moderate Stenosis 0.6-0.75, percent of mice (LDLR mice on HFD; [7]): (57%)
Penetrance, fractional valve opening: No Stenosis >0.85, number of mice (LDLR mice on HFD; [7]): 0
Penetrance, fractional valve opening: No Stenosis >0.85, percent of mice (LDLR mice on HFD; [7]): (0%)
Penetrance, fractional valve opening: Severe Stenosis <0.6, number of mice (LDLR mice on HFD; [7]): 0
Penetrance, fractional valve opening: Severe Stenosis <0.6, percent of mice (LDLR mice on HFD; [7]): (0%)
Penetrance, wall shear stress: Mild Stenosis 350-525 dyn/cm^2, number of mice (LDLR mice on HFD; [7]): 3
Penetrance, wall shear stress: Mild Stenosis 350-525 dyn/cm^2, percent of mice (LDLR mice on HFD; [7]): (43%)
Penetrance, wall shear stress: Moderate Stenosis 525-700 dyn/cm^2, number of mice (LDLR mice on HFD; [7]): 4
Penetrance, wall shear stress: Moderate Stenosis 525-700 dyn/cm^2, percent of mice (LDLR mice on HFD; [7]): (57%)
Penetrance, wall shear stress: No Stenosis <350 dyn/cm^2, number of mice (LDLR mice on HFD; [7]): 0
Penetrance, wall shear stress: No Stenosis <350 dyn/cm^2, percent of mice (LDLR mice on HFD; [7]): (0%)
Penetrance, wall shear stress: Severe Stenosis >700 dyn/cm^2, number of mice (LDLR mice on HFD; [7]): 0
Penetrance, wall shear stress: Severe Stenosis >700 dyn/cm^2, percent of mice (LDLR mice on HFD; [7]): (0%)
WSS (wall shear stress) (LDLR mice on HFD; NAC months 3-5 (moderate AS)): improved
fractional valve opening (LDLR mice on HFD; NAC months 3-5 (moderate AS)): improved
WSS (wall shear stress) (LDLR mice on HFD; NAC months 5-6 (severe AS)): improved
fractional valve opening (LDLR mice on HFD; NAC months 5-6 (severe AS)): improved
effect on AS (LDLR mice on HFD; long-term NAC treatment (1-6 months) (data not shown)): very little to no effect
atherosclerotic plaque (adverse effect) (LDLR mice on HFD; mouse, in vivo): increased atherosclerotic plaque
heart function (adverse effect) (LDLR mice on HFD; mouse, in vivo): deterioration of heart function
mild to moderate AS progression (LDLR mice on HFD; short-term NAC treatment from 2-3 months (data not shown)): halted
